The source of these data is patent publication US20050256204A1, “Topical phenyl-epinephrine Rosacea treatment” (priority 2004, published 2005).

Test [1] deals with non-mucous membrane skin tissues. The note with it: topical application; phenyl-epinephrine strength of at least one percent; water-based gel. The source says:
The topical applications of phenyl-epinephrine used in steps 104, 106, and 108, can include the use of a skin lotion comprising phenyl-epinephrine in solution with a strength sufficient for transdermal absorption by non-mucous membrane skin tissues. Such phenyl-epinephrine is the only active ingredient, and it is preferably compounded with a water-based gel. Such gel provides for holding the phenyl-epinephrine in contact with a user's skin for a minimal residence time sufficient to induce vasoconstriction.

Test [2] deals with skin reddening symptoms of Rosacea and other facial skin disorders. Particulars: topical applications in a cosmetic lotion, applied as needed. The source says: For example, using step 106 alone. Further embodiments of the present invention therefore comprise phenyl-epinephrine cosmetic skin lotion. The skin lotion is applied as needed by the user, e.g., just before going out in public.

As to `CNC[C@H](O)c1cccc(O)c1` [phenyl-epinephrine], the vasoconstriction result in test [1] is listed as “produced the desired vasoconstriction”. Also, the “relief of skin reddening symptoms” value in test [2] is given as “temporary relief of skin reddening symptoms”.
